# Data reported in patent US4758555A, “Method for treating convulsions and epilepsy with organic copper compounds” (priority 1986, dated 1988).
# “Also recorded” adds a separate entry of the source.
# Legend:
# Assay type in all cases: in vivo, male Carworth Farms #1 mice or Sprague-Dawley rats
# [1] = Anticonvulsant activity, both or unspecified seizure models; conditions: for Anticonvulsant activity (in words): running text; for Time of peak activity (Phase II): Table X, IP, challenge time
# [2] = Subcutaneous Pentylenetetrazol (Metrazol) Seizure Threshold Test; conditions: for Lowest active dose, Metrazol (Phase I): Table V; for ED50: read-out: ED50 for inhibition of seizures, Metrazol (Phase II); for Protection against Metrazol-induced seizures (in words): running text
# [3] = Maximal Electroshock Seizure Test; conditions: for Lowest active dose, MES (Phase I): Table V; for ED50: read-out: ED50 for inhibition of seizures, MES (Phase II); for Protection against Maximal Electroshock-induced seizures (in words): running text; for Anticonvulsant activity, Maximal Electroshock (Phase I): Table I
# [4] = Table X, IP, challenge time 30 min
# [5] = Table X, IP, challenge time 4 hrs
# [6] = Table X, SC, challenge time 30 min
# [7] = Table X, SC, challenge time 4 hrs
# [8] = Table X, IP, at time of peak activity
# [9] = Mus musculus, Table X, IP, at time of peak activity
Molecule,Anticonvulsant activity (in words) [1],Time of peak activity (Phase II) [1] [h],"Lowest effective dose, Metrazol (Phase I) [2, 4]","Lowest effective dose, Metrazol (Phase I) [2, 5]","Lowest effective dose, Metrazol (Phase I) [2, 6]","Lowest effective dose, Metrazol (Phase I) [2, 7]","Lowest effective dose, MES (Phase I) [3, 4]","Lowest effective dose, MES (Phase I) [3, 5]","Lowest effective dose, MES (Phase I) [3, 6]","Lowest effective dose, MES (Phase I) [3, 7]",further results
Cc1ncc(CO)c(C=NCC(=O)[O-])c1[O-].Cc1ncc(CO)c(C=NCC(=O)[O-])c1[O-].O.O.O.[Cu+2].[Cu+2] [Cu(II)Pyridoxylideneglycinate(H2 O)1.5],protected against both types of seizure,–,–,–,–,–,–,–,–,–,"Lowest active dose, Metrazol (Phase I) ([2]; IP, challenge time 30 min): 100 mg/kg of body weight; Lowest active dose, Metrazol (Phase I) ([2]; IP, challenge time 4 hrs): I; Lowest active dose, MES (Phase I) ([3]; IP, challenge time 30 min): 300 mg/kg of body weight; Lowest active dose, MES (Phase I) ([3]; IP, challenge time 4 hrs): I"
Cu(II)Pyridoxylidene-L-phenylalaninate(H2 O)2,no activity,–,–,–,–,–,–,–,–,–,"Lowest active dose, Metrazol (Phase I) ([2]; IP, challenge time 30 min): I; Lowest active dose, Metrazol (Phase I) ([2]; IP, challenge time 4 hrs): I; Lowest active dose, MES (Phase I) ([3]; IP, challenge time 30 min): I; Lowest active dose, MES (Phase I) ([3]; IP, challenge time 4 hrs): I"
"CCC1(c2ccccc2)C(=O)NC(=O)NC1=O [Phenobarbital, reference compound]",–,1,–,–,–,–,–,–,–,–,"ED50 ([2]; Mus musculus, ip): 13 mg/kg; ED50 ([3]; Mus musculus, ip): 22 mg/kg"
"O=C1Nc2ccc(Cl)cc2C(c2ccccc2Cl)=NC1O (stereo not shown) [Lorazepam, reference compound]",–,1,–,–,–,–,–,–,–,–,"ED50 ([2]; Mus musculus, ip): 0.02 mg/kg; ED50 ([3]; Mus musculus, ip): 24 mg/kg"
Cc1ncc(CO)c(C=N[C@@H](Cc2c[nH]c3ccccc23)C(=O)[O-])c1[O-].O.O.[Cu+2] [Cu(II)Pyridoxylidene-L-tryptophanate(H2 O)2],more effective but only protected against the Metrazol-induced seizure,–,–,–,–,–,–,–,–,–,"Lowest active dose, Metrazol (Phase I) ([2]; IP, challenge time 30 min): 30 mg/kg of body weight; Lowest active dose, Metrazol (Phase I) ([2]; IP, challenge time 4 hrs): 30 mg/kg of body weight; Lowest active dose, MES (Phase I) ([3]; IP, challenge time 30 min): I; Lowest active dose, MES (Phase I) ([3]; IP, challenge time 4 hrs): I"
"CN1C(=O)CN=C(c2ccccc2)c2cc(Cl)ccc21 [Diazepam, reference compound]",–,1,–,–,–,–,–,–,–,–,"ED50 ([2]; Mus musculus, ip): 0.17 mg/kg; ED50 ([3]; Mus musculus, ip): 19 mg/kg"
Cu(II)Carbamazepine(H2 O)2,effective anticonvulsant,–,30 milligrams per kilogram of bod,I,300 milligrams per kilogram of bod,300 milligrams per kilogram of bod,10 milligrams per kilogram of bod,100 milligrams per kilogram of bod,30 milligrams per kilogram of bod,100 milligrams per kilogram of bod,Protection against Metrazol-induced seizures (in words) [2]: did not potentiate Metrazol seizures
CCC1(c2ccccc2)C(=O)[N-]C(=O)NC1=O.CCC1(c2ccccc2)C(=O)[N-]C(=O)NC1=O.O.O.O.[Cu+2] [Cu(II)(Phenobarbital)2 (H2 O)3],–,2,5 milligrams per kilogram of bod,5 milligrams per kilogram of bod,30 milligrams per kilogram of bod,30 milligrams per kilogram of bod,30 milligrams per kilogram of bod,30 milligrams per kilogram of bod,30 milligrams per kilogram of bod,30 milligrams per kilogram of bod,"ED50 for inhibition of seizures, Metrazol (Phase II) [2, 8]: 10 mg/kg; ED50 for inhibition of seizures, MES (Phase II) [3, 8]: 16 mg/kg"
Cu(II)Pyridoxylidene-L-valinate(H2 O),no activity,–,–,–,–,–,–,–,–,–,"Lowest active dose, Metrazol (Phase I) ([2]; IP, challenge time 30 min): I; Lowest active dose, Metrazol (Phase I) ([2]; IP, challenge time 4 hrs): I; Lowest active dose, MES (Phase I) ([3]; IP, challenge time 30 min): I; Lowest active dose, MES (Phase I) ([3]; IP, challenge time 4 hrs): I"
O.O=C1Nc2ccc(Cl)cc2C(c2ccccc2Cl)=NC1O.O=C1Nc2ccc(Cl)cc2C(c2ccccc2Cl)=NC1O.[Cl-].[Cl-].[Cu+2] (stereo not shown) [Cu(II)(Lorazepam)2 (Cl)2 H2 O],appears to be quite active,–,I,I,I,I,20 milligrams per kilogram of bod,30 milligrams per kilogram of bod,20 milligrams per kilogram of bod,100 milligrams per kilogram of bod,Onset and duration of anticonvulsant action (in words) [1]: rapid onset of action and prolonged duration following intraperitoneal and subcutaneous administration
Cu(II)2 (valproate)4,–,–,100 milligrams per kilogram of bod,I,I,600 milligrams per kilogram of bod,I,I,I,I,Onset and duration of anticonvulsant action (in words) [1]: rapid onset and short duration of activity following intraperitoneal administration; also recorded: prolonged onset of activity at a higher dose following subcutaneous administration; Protection against Metrazol-induced seizures (in words) [2]: effective in protecting against Metrazol-induced seizures; also recorded: some inhibitory activity against Metrazol-induced seizures; Protection against Maximal Electroshock-induced seizures (in words) [3]: ineffective against Maximal Electroshock seizures
CN1C(=O)CN=C(c2ccccc2)c2cc(Cl)ccc21.CN1C(=O)CN=C(c2ccccc2)c2cc(Cl)ccc21.[Cl-].[Cl-].[Cu+2] [Cu(II)(Diazepam)2 (Cl)2],–,–,30 milligrams per kilogram of bod,30 milligrams per kilogram of bod,–,–,30 milligrams per kilogram of bod,30 milligrams per kilogram of bod,–,–,Onset and duration of anticonvulsant action (in words) [1]: rapid onset of action and prolonged duration following intraperitoneal administration
"CCCC(CCC)C(=O)O [Valproic Acid, reference compound]",–,0.25,–,–,–,–,–,–,–,–,"ED50 [2, 9]: 149 mg/kg; Protection against Metrazol-induced seizures (in words) [2]: more effective against Metrazol-induced seizures; ED50 [3, 9]: 272 mg/kg; Protection against Maximal Electroshock-induced seizures (in words) [3]: weakly effective against Maximal Electroshock-induced seizures"
O=C1CN=C(c2ccccc2Cl)c2cc([N+](=O)[O-])ccc2N1.O=C1CN=C(c2ccccc2Cl)c2cc([N+](=O)[O-])ccc2N1.[Cl-].[Cl-].[Cu+2] [Cu(II)(Clonazepam)2 (Cl)2],very potent anticonvulsant,0.5,1 milligrams per kilogram of bod,1 milligrams per kilogram of bod,1 milligrams per kilogram of bod,1 milligrams per kilogram of bod,10 milligrams per kilogram of bod,I,1 milligrams per kilogram of bod,30 milligrams per kilogram of bod,"Potency or effectiveness relative to a comparator (in words) ([1]; in vivo): four times as effective as the parent drug; ED50 for inhibition of seizures, Metrazol (Phase II) [2, 8]: 0.05 mg/kg; ED50 for inhibition of seizures, MES (Phase II) [3, 8]: 25 mg/kg"
"CCC1(CCC(C)C)C(=O)NC(=O)NC1=O [Amobarbital, reference compound]",–,0.25,–,I,–,–,–,I,–,–,"minimal effective dose ([2]; Mus musculus, 0.5 h, read-out: Lowest effective dose, Metrazol (Phase I)): 100 mg/kg; ED50 ([2]; Mus musculus, ip): 53 mg/kg; minimal effective dose ([3]; Mus musculus, 0.5 h, read-out: Lowest effective dose, MES (Phase I)): 30 mg/kg; ED50 ([3]; Mus musculus, ip): 45 mg/kg"
CCC1(c2ccccc2)C(=O)[N-]C(=O)NC1=O.CCC1(c2ccccc2)C(=O)[N-]C(=O)NC1=O.[Cu+2].c1ccncc1.c1ccncc1 [Cu(II)(Phenobarbital)2 (pyridine)2],–,2,30 milligrams per kilogram of bod,30 milligrams per kilogram of bod,I,30 milligrams per kilogram of bod,100 milligrams per kilogram of bod,100 milligrams per kilogram of bod,I,30 milligrams per kilogram of bod,"ED50 for inhibition of seizures, Metrazol (Phase II) [2, 8]: 9 mg/kg; ED50 for inhibition of seizures, MES (Phase II) [3, 8]: 17 mg/kg"
"CC(=O)Oc1c(Br)cc(Br)cc1C(=O)[O-].CC(=O)Oc1c(Br)cc(Br)cc1C(=O)[O-].[Cu+2] [Cu(II)2 (3,5-dibromoacetylsalicylate)4]",effective in protecting against both models of seizure,–,–,–,–,–,–,–,–,–,"Anticonvulsant activity, Metrazol (Phase I) ([2]; Table I, SC): I"
CC(=O)Oc1ccccc1C(=O)[O-].CC(=O)Oc1ccccc1C(=O)[O-].CC(=O)Oc1ccccc1C(=O)[O-].CC(=O)Oc1ccccc1C(=O)[O-].[Cu+2].[Cu+2] [Cu(II)2 (acetylsalicylate)4],"activity at 30 minutes, 6 hours and 8 hours following subcutaneous injection of the entire range of doses studied",–,–,–,–,–,–,–,–,–,"Anticonvulsant activity, Maximal Electroshock (Phase I) ([3]; SC): I"
"CC(=O)Oc1c(I)cc(I)cc1C(=O)[O-].CC(=O)Oc1c(I)cc(I)cc1C(=O)[O-].O.O.O.[Cu+2] [Cu(II)2 (3,5-diiodoacetylsalicylate)4 (H2 O)6]",effective in protecting against both models of seizure,–,–,–,–,–,–,–,–,–,"Anticonvulsant activity, Maximal Electroshock (Phase I) ([3]; IP): I"
